Data taken from PubChem BioAssay (NCI).
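The compound was tested at five concentrations on cells cultured in 96-well plates, with a 48-hour exposure period. At the GI50, growth is halved. TGI denotes the concentration required for complete inhibition of growth.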

Assays:
Assay in all cases: NCI anticancer screen, dose series, 48 h
[1] = system: HS 578T breast
[2] = system: HL-60(TB) leukemia
[3] = system: MCF7 breast
[4] = system: MOLT-4 leukemia
[5] = system: KM12 colon
[6] = system: SK-MEL-5 melanoma
[7] = system: NCI/ADR-RES ovarian
[8] = system: CAKI-1 renal
[9] = system: LOX IMVI melanoma
[10] = system: EKVX NSCLC
[11] = system: NCI-H23 lung
[12] = system: IGROV1 ovarian
[13] = system: T-47D breast
[14] = system: ACHN renal
[15] = system: K-562 leukemia
[16] = system: SK-OV-3 ovarian
[17] = system: NCI-H522 lung
[18] = system: OVCAR-5 ovarian
[19] = system: 786-0 renal
[20] = system: SK-MEL-28 melanoma
[21] = system: SN12C renal
[22] = system: MDA-MB-231 breast
[23] = system: A549 NSCLC
[24] = system: SR leukemia
[25] = system: OVCAR-4 ovarian
[26] = system: COLO 205 colon
[27] = system: HT29 colon
[28] = system: RXF 393 renal
[29] = system: RPMI-8226 leukemia
[30] = system: SF-268 CNS
[31] = system: U251 CNS
[32] = system: HCT-116 colon
[33] = system: OVCAR-8 ovarian
[34] = system: SW-620 colon
[35] = system: SK-MEL-2 melanoma
[36] = system: M14 melanoma
[37] = system: SNB-75 CNS
[38] = system: HOP-92 NSCLC
[39] = system: A498 renal
[40] = system: UACC-257 melanoma
[41] = system: BT-549 breast
[42] = system: UO-31 renal
[43] = system: SNB-19 CNS
[44] = system: NCI-H460 lung
[45] = system: HOP-62 NSCLC
[46] = system: HCT-15 colon
[47] = system: MDA-MB-435
[48] = system: MALME-3M melanoma
[49] = system: UACC-62 melanoma
[50] = system: NCI-H226 lung
[51] = system: CCRF-CEM leukemia
[52] = system: SF-539 CNS
[53] = system: DU-145 prostate
[54] = system: SF-295 CNS
[55] = system: PC-3 prostate
[56] = system: TK-10 renal
[57] = system: OVCAR-3 ovarian
[58] = system: HCC-2998 colon

O=C1c2cccnc2-c2nc(-c3cccnc3)cc3c2c1nc1ccccc13
GI50 [1]: 2.94 µM
TGI [1]: > 20.9 µM
GI50 [2]: 2.11 µM
TGI [2]: > 100 µM
GI50 [3]: 1.64 µM
TGI [3]: 3.32 µM
GI50 [4]: 3.21 µM
TGI [4]: > 41.3 µM
GI50 [5]: 4.16 µM
TGI [5]: > 44.5 µM
GI50 [6]: 1.55 µM
TGI [6]: 3.46 µM
GI50 [7]: 3.12 µM
TGI [7]: > 23.9 µM
GI50 [8]: 6.96 µM
TGI [8]: 22.8 µM
GI50 [9]: 2.8 µM
TGI [9]: > 25.1 µM
GI50 [10]: 10.6 µM
TGI [10]: 32.7 µM
GI50 [11]: 3.7 µM
TGI [11]: 20.7 µM
GI50 [12]: 3.12 µM
TGI [12]: 28.4 µM
GI50 [13]: 10.4 µM
TGI [13]: > 65.2 µM
GI50 [14]: 1.55 µM
TGI [14]: 2.88 µM
GI50 [15]: 1.67 µM
TGI [15]: > 100 µM
GI50 [16]: 15.3 µM
TGI [16]: 29.8 µM
GI50 [17]: 1.74 µM
TGI [17]: 4.35 µM
GI50 [18]: 12.2 µM
TGI [18]: 30.1 µM
GI50 [19]: 2.74 µM
TGI [19]: 8.85 µM
GI50 [20]: 20.5 µM
TGI [20]: 59 µM
GI50 [21]: 2.18 µM
TGI [21]: 5.02 µM
GI50 [22]: 4.43 µM
TGI [22]: > 72 µM
GI50 [23]: 3.97 µM
TGI [23]: 15.6 µM
TGI [24]: > 100 µM
GI50 [25]: 5.07 µM
TGI [25]: 19.8 µM
GI50 [26]: 3.33 µM
TGI [26]: 10.9 µM
GI50 [27]: 2.52 µM
GI50 [28]: 3.95 µM
TGI [28]: 11.3 µM
GI50 [29]: 2.59 µM
TGI [29]: > 100 µM
GI50 [30]: 3.73 µM
TGI [30]: > 26.5 µM
GI50 [31]: 3.61 µM
TGI [31]: > 100 µM
GI50 [32]: 2.8 µM
TGI [32]: > 32.7 µM
GI50 [33]: 1.31 µM
TGI [33]: 3.96 µM
GI50 [34]: 2.28 µM
TGI [34]: 5.63 µM
GI50 [35]: 18 µM
TGI [35]: 33.8 µM
GI50 [36]: 1.93 µM
TGI [36]: 3.51 µM
GI50 [37]: 2.34 µM
TGI [37]: 6.91 µM
GI50 [38]: 6.44 µM
TGI [38]: 80.6 µM
GI50 [39]: 17.7 µM
TGI [39]: 46.8 µM
GI50 [40]: 10.1 µM
TGI [40]: 15.1 µM
GI50 [41]: 4.53 µM
TGI [41]: 9.5 µM
GI50 [42]: 15.2 µM
TGI [42]: 37.3 µM
GI50 [43]: 5.59 µM
TGI [43]: 21 µM
GI50 [44]: 2.16 µM
GI50 [45]: 1.73 µM
TGI [45]: 3.22 µM
GI50 [46]: 1.63 µM
TGI [46]: 4.58 µM
GI50 [47]: 5.58 µM
TGI [47]: 32 µM
GI50 [48]: 17.6 µM
TGI [48]: 32.4 µM
GI50 [49]: 13.3 µM
TGI [49]: 28.3 µM
GI50 [50]: 2.02 µM
TGI [50]: 5.53 µM
GI50 [51]: 5.23 µM
TGI [51]: > 100 µM
GI50 [52]: 1.72 µM
TGI [52]: 3.6 µM
GI50 [53]: 3 µM
TGI [53]: 8.31 µM
GI50 [54]: 1.92 µM
TGI [54]: 3.71 µM
GI50 [55]: 4.4 µM
TGI [55]: 26.7 µM

CCN1[C@@H](C(=O)NC23CCC(C(=O)O)(CC2)CC3)[C@H](c2cccc(Cl)c2F)[C@]2(C(=O)Nc3cc(Cl)ccc32)C12CCCCC2
GI50 [1]: 2.05 µM
TGI [1]: 10.1 µM
GI50 [2]: 1.96 µM
TGI [2]: 6 µM
GI50 [3]: 0.0523 µM
TGI [3]: 3.97 µM
GI50 [4]: 0.164 µM
TGI [4]: > 22.9 µM
GI50 [5]: 3.34 µM
TGI [5]: 12.7 µM
GI50 [6]: 1.39 µM
TGI [6]: 2.75 µM
GI50 [7]: 5.65 µM
TGI [7]: 42.5 µM
GI50 [8]: < 0.0149 µM
TGI [8]: 0.817 µM
GI50 [9]: 0.259 µM
TGI [9]: 4.88 µM
GI50 [10]: 2.53 µM
TGI [10]: 13.7 µM
GI50 [11]: 3.53 µM
TGI [11]: 17.4 µM
GI50 [12]: 0.99 µM
TGI [12]: 15.5 µM
GI50 [13]: 3.13 µM
TGI [13]: 19.4 µM
GI50 [14]: 0.0878 µM
TGI [14]: 3.77 µM
GI50 [15]: 2.98 µM
TGI [15]: > 100 µM
GI50 [16]: 3.03 µM
TGI [16]: 12 µM
GI50 [17]: 2.62 µM
TGI [17]: 8.24 µM
GI50 [56]: 3.05 µM
TGI [56]: 16.2 µM
GI50 [18]: 3.74 µM
TGI [18]: 17.8 µM
GI50 [19]: 2.94 µM
TGI [19]: 12.1 µM
GI50 [20]: 3.71 µM
TGI [20]: 14 µM
GI50 [21]: 3.67 µM
TGI [21]: 19.4 µM
GI50 [22]: 5.85 µM
TGI [22]: 27.4 µM
GI50 [23]: 0.177 µM
TGI [23]: 7.03 µM
GI50 [24]: 0.0146 µM
TGI [24]: 4.72 µM
GI50 [25]: 3.37 µM
TGI [25]: 15.5 µM
GI50 [26]: 3.02 µM
TGI [26]: 10.6 µM
GI50 [27]: 3.06 µM
TGI [27]: 14.8 µM
GI50 [57]: 2.53 µM
TGI [57]: 7.74 µM
GI50 [58]: 2.39 µM
TGI [58]: 6.89 µM
GI50 [28]: 1.99 µM
TGI [28]: 5.69 µM
GI50 [29]: 2.33 µM
TGI [29]: 6.61 µM
GI50 [30]: 3.1 µM
TGI [30]: 15.1 µM
GI50 [31]: 3.29 µM
TGI [31]: 15.5 µM
GI50 [32]: 0.104 µM
TGI [32]: 3.11 µM
GI50 [33]: 3.84 µM
TGI [33]: 18.7 µM
GI50 [34]: 3.92 µM
TGI [34]: 17.1 µM
GI50 [35]: 2.02 µM
TGI [35]: 5.18 µM
GI50 [36]: 3.22 µM
TGI [36]: 13.1 µM
GI50 [37]: 1.91 µM
TGI [37]: 14.8 µM
GI50 [38]: 2.15 µM
TGI [38]: 6.45 µM
GI50 [39]: 0.281 µM
TGI [39]: 3.37 µM
GI50 [40]: 0.228 µM
TGI [40]: 1.86 µM
GI50 [41]: 2.28 µM
TGI [41]: 5.54 µM
GI50 [42]: 0.0779 µM
TGI [42]: 3.6 µM
GI50 [43]: 3.56 µM
TGI [43]: 15.2 µM
GI50 [44]: 0.0909 µM
TGI [44]: 1.45 µM
GI50 [45]: 3.19 µM
TGI [45]: 13.6 µM
GI50 [46]: 2.57 µM
TGI [46]: 12.5 µM
GI50 [47]: 2.92 µM
TGI [47]: 10.7 µM
GI50 [48]: 0.0655 µM
TGI [48]: 1.18 µM
GI50 [49]: 0.0372 µM
TGI [49]: 2.24 µM
GI50 [51]: 2.98 µM
TGI [51]: 13.2 µM
GI50 [52]: 2.78 µM
TGI [52]: 10.6 µM
GI50 [53]: 5.47 µM
TGI [53]: 18.5 µM
GI50 [54]: 2.21 µM
TGI [54]: 7.29 µM
GI50 [55]: 2.42 µM
TGI [55]: 9.21 µM
